Consider 16 compounds from PubChem BioAssay (NCI).

What all share (test): growth of human tumour cells (NCI), 48 h
Assay [1] concerns NCI-H522 lung.
In assay [2] the test system is SF-539 CNS.
Assay [3] concerns LOX IMVI melanoma.
The subject of assay [4] is OVCAR-4 ovarian.
The subject of assay [5] is SW-620 colon.
The subject of assay [6] is HOP-92 NSCLC.
The test system of assay [7] is SK-MEL-28 melanoma.
Assay [8] concerns A549 NSCLC.
The test system of assay [9] is DU-145 prostate.
Assay [10] relates to BT-549 breast.

Structures are written as SMILES. Several values for one entry are separate records, joined by “and”; a condition that tells them apart may be missing. Equal entries are not always repeated.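 Grown in 96-well plates, cells were treated for 48 hours with each compound at five concentrations. Insufficient inhibition: endpoint recorded as highest concentration tested. The concentration for 50% growth inhibition is given as GI50. TGI: concentration producing complete growth inhibition.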

For the compound `CC(C)(C1=NC(C(C)(C)C)CO1)C1=N[C@@H](C(C)(C)C)CO1` (stereo partly drawn), the TGI in assay [1], in assay [2], in [3], in assay [4], in assay [5] and in [6] was over 100 µM in each case. Also, the TGI in assay [7] and in assay [8] was over 100 µM throughout.
Take `C[C@@H]([C@H]1CC[C@@]2(C)[C@@H]3CC[C@@H]4C(=CC3=CC[C@]12C)CC[C@H](N(C)C)C4(C)C)N(C)C`: the TGI in [1], in [2], in assay [3], in assay [4], in [5] and in assay [9] was over 100 µM each time. Moreover, the TGI in assay [6] and in assay [7] was over 100 µM each time.
Regarding `Cc1c2cc[n+](C)cc2c(C)c2c1[nH]c1ccc(OCC(F)(F)F)cc12`, the TGI in [1] was 5.64 µM and 4.83 µM; in assay [3] it was over 100 µM; in assay [4], over 100 µM; in [5] it was over 100 µM; in assay [6], 8.98 µM and > 28.5 µM; in assay [7], over 100 µM. The compound further came in with a TGI in [8] of over 100 µM. Besides, the GI50 is 1.73 µM in [2]; 10.8 µM and 22.8 µM in assay [3]; 5.31 µM and > 33.4 µM in assay [7].
With `O=Cc1c2c(cc3c1CC1(C3)Cc3cc4c(c(C=O)c3C1)CCC4)CCC2`, the TGI is over 100 µM in assay [1]; over 100 µM in assay [2]; 51.1 µM in [3]; 72.1 µM in assay [4]; 56.5 µM in [6]; 87.5 µM in [8].
Take `C=CC(C)(C)/C(=C\CO[Si](C(C)C)(C(C)C)C(C)C)C(=O)N(C)c1ccccc1I`: the TGI in [1] was 19 µM; in assay [2], 33 µM; in assay [3], 27.4 µM; in assay [4], 68.1 µM; in assay [5], 26.1 µM; in assay [9], 29.4 µM. Also, the values for the TGI in [6], in assay [7] and in assay [8] were 22.2 µM, 29.4 µM and 23.9 µM, respectively.
In the case of `CN(C)Cc1cc(/C=C/C(=O)c2ccc(Br)cc2)cc(CN(C)C)c1O`, the TGI in assay [10] is 34.4 µM; in [2], 29.1 µM; in assay [5] it was 52 µM; in assay [9], 33.7 µM; in assay [7], 34.9 µM; in assay [8], over 100 µM.
For `CSCSCC(CO)NC(=O)/C=C\c1c(C)[nH]c(=O)[nH]c1=O` (stereo not drawn), the TGI in assay [1] amounted to 8.48 µM; in assay [2], 192 µM; in assay [3] it was 107 µM; in [4] it was 13.4 µM; in [5], 207 µM; in assay [6] it was 10.1 µM. The TGI in [7] turned out to be 219 µM; in assay [8] it was 375 µM.
As for `C#CC(O)/C=C/C(O)CCCC(O)CC#CC(O)C#CCCCCC(O)/C=C/CCCC(=O)CCCCCCCCCCCCCCCC(O)C(O)C#CC(=O)O` (stereo not drawn), the TGI in assay [1] was 17.1 µM; in [3] it was 10.4 µM; in [4], over 25 µM; in assay [9], over 25 µM; in assay [6], over 25 µM; in assay [7], over 25 µM. This compound also yielded a TGI in assay [8] of over 25 µM.
With `c1ccc(C2N=C(c3ccccn3)C(c3ccccn3)=NC2c2ccccc2)cc1` (stereo not drawn), the TGI in assay [1], in assay [2], in assay [3], in assay [4], in [5] and in assay [6] was over 100 µM in each case. Also, the TGI in assay [7] and in [8] was over 100 µM in each case.
Regarding `COC(=O)c1c(CC(=O)OC(C)C)cc2n(c1=O)Cc1c-2nc2ccccc2c1OC`, the TGI in [1], in assay [3], in [4], in [5], in [6] and in assay [7] was over 100 µM each time. For the same compound, in assay [8], the TGI was over 100 µM.
Regarding `COc1ccc(C2C3=C(COC3=O)Oc3cc4c(cc32)OCO4)cc1OC` (stereo not drawn), the TGI in assay [1] is 2.19 µM; in assay [2] it was 2.31 µM; in [3] it was over 100 µM; in [4], over 100 µM; in assay [5], over 100 µM; in assay [9], over 67.2 µM. For the same compound, the TGI in assay [6], in assay [7] and in [8] was over 100 µM each time.
For `N/C(=N\N=C/c1c(O)cc(O)cc1O)NO`, the TGI in assay [1], in assay [2], in [3], in assay [4], in [5] and in assay [6] was over 100 µM each time. Moreover, the TGI in [7] and in assay [8] was over 100 µM in each case.
Regarding `Cc1noc(-c2ccc(C(=O)O)[nH]2)c1Br`, the TGI in assay [10] is over 100 µM; in assay [1], over 100 µM; in assay [4], over 100 µM; in assay [5] it was over 100 µM; in assay [9] it was over 100 µM; in [6], 84.3 µM. The TGI in [7] and in assay [8] was over 100 µM each time.
With `O=c1[nH]c(=S)[nH]c2c1CCCN2`, the TGI in [1], in [3], in assay [5], in assay [6], in assay [7] and in [8] was over 100 µM throughout.
`C=CCCCN(C(=O)c1ccccc1)c1ccc(C(=O)OC)o1`: the TGI in [1], in assay [2], in assay [3], in assay [4], in assay [9] and in [6] was over 100 µM throughout. For the same compound, the TGI in assay [8] was over 100 µM.
With `Cc1ccc(N2Cc3c(ccc4ccccc34)OP2(=S)N2CCCC2)cc1` (stereo not drawn), the TGI in assay [1], in assay [2], in assay [3], in assay [4], in assay [5] and in assay [6] was over 100 µM throughout. Besides, the TGI in assay [7] and in [8] was over 100 µM in each case.
